Laboratory results reported in article PMC8161026, “Synthesis and Anticancer Activity Evaluation of 5-[2-Chloro-3-(4-nitrophenyl)-2-propenylidene]-4-thiazolidinones” (Molecules, 2021).

Tests used:
[1] = tested on: 60 tumor cell lines; experiment: NCI60 full panel MG_MID; settings: for GI50 / CC50: Homo sapiens; for GI50: read-out: 60 lines MG_MID, GI50; for CC50: read-out: 60 lines MG_MID, LC50; for 60 lines MG_MID, TGI: mean over all cell lines
Description: At the first stage of biological activity study, the antitumor activity screening of the selected compounds 2b, 2c, 2f, 2h, and 2j was performed according to the NCI DTP (USA) standard protocol at the concentrations ranging from 10^−4 to 10^−8 M toward 60 tumor cell lines. The percentage of growth was evaluated spectrophotometrically versus controls not treated with test agents after 48 h exposure and using SRB protein assay to estimate cell viability or growth. Dose–response parameters were calculated for each cell line: GI50—molar concentration of the compound that inhibits 50% net cell growth; TGI—molar concentration of the compound leading to the total inhibition; and LC50—molar concentration of the compound leading to 50% net cell death. Furthermore, mean graph midpoints (MG_MID) were calculated for each of the parameters, giving an average activity parameter over all cell lines for the tested compound. For the MG_MID calculation, insensitive cell lines were included with the highest concentration tested.
Primary anticancer assay was performed on a panel of approximately sixty human tumor cell lines derived from nine neoplastic diseases, in accordance with the protocol of the Drug Evaluation Branch, National Cancer Institute, Bethesda. Tested compounds were added to the culture at a single concentration (10^−5 M) and the cultures were incubated for 48 h. End point determinations were made with a protein binding dye, sulforhodamine B (SRB). […] The percentage growth was evaluated spectrophotometrically versus controls not treated with test agents.
Dose–response parameters (GI50, TGI, LC50) were calculated for each compound. […] The drug concentration resulting in total growth inhibition (TGI) was calculated from Ti = Tz. The LC50 (concentration of drug resulting in a 50% reduction in the measured protein at the end of the drug treatment as compared to that at the beginning) indicating a net loss of cells following treatment was calculated from [(Ti − Tz)/Tz] × 100 = −50 (2). Values were calculated for each of these parameters if the level of activity was reached; however, if the effect was not reached or was excessive, the value for that parameter was expressed as more or less than the maximum or minimum concentration tested.

[2] = tested on: NCI-H23; settings: NCI-H23 (Non-Small Cell Lung Cancer), 48 h, SRB
[3] = tested on: OVCAR-3; experiment: NCI DTP 60 cell line screen, SRB; settings: for GI50 / CC50: Homo sapiens, OVCAR-3, 48 h; for CC50: read-out: LC50; for TGI: OVCAR-3 (Ovarian Cancer), 48 h, SRB
[4] = tested on: SK-OV-3; experiment: NCI DTP 60 cell line screen, SRB; settings: for GI50 / CC50: Homo sapiens, SK-OV-3, 48 h; for CC50: read-out: LC50; for TGI: SK-OV-3 (Ovarian Cancer), 48 h, SRB
[5] = tested on: UACC-62; experiment: NCI DTP 60 cell line screen, SRB; settings: for GI50 / CC50: Homo sapiens, UACC-62, 48 h; for CC50: read-out: LC50; for TGI: UACC-62 (Melanoma), 48 h, SRB
[6] = tested on: A498; experiment: NCI DTP 60 cell line screen, SRB; settings: for TGI: A498 (Renal Cancer), 48 h, SRB; for GI50 / CC50: Homo sapiens, A498, 48 h; for CC50: read-out: LC50
[7] = tested on: SK-MEL-5; experiment: NCI DTP 60 cell line screen, SRB; settings: for GI50 / CC50: Homo sapiens, SK-MEL-5, 48 h; for CC50: read-out: LC50; for TGI: SK-MEL-5 (Melanoma), 48 h, SRB
[8] = tested on: NCI-H460; experiment: cells; settings: Homo sapiens, NCI-H460, 48 h; for CC50: read-out: LC50
[9] = tested on: SK-MEL-2; experiment: cells; settings: Homo sapiens, SK-MEL-2, 48 h; for CC50: read-out: LC50
[10] = tested on: KM12; settings: KM12 (Colon Cancer), 48 h, SRB
[11] = tested on: PC-3; settings: PC-3 (Prostate Cancer), 48 h, SRB
[12] = tested on: SF-295; experiment: NCI DTP 60 cell line screen, SRB; settings: for GI50 / CC50: Homo sapiens, SF-295, 48 h; for CC50: read-out: LC50; for TGI: SF-295 (CNS Cancer), 48 h, SRB
[13] = tested on: TK-10; experiment: NCI DTP 60 cell line screen, SRB; settings: for GI50 / CC50: Homo sapiens, TK-10, 48 h; for CC50: read-out: LC50; for TGI: TK-10 (Renal Cancer), 48 h, SRB
[14] = tested on: HCT-15; experiment: NCI DTP 60 cell line screen, SRB; settings: for TGI: HCT-15 (Colon Cancer), 48 h, SRB; for GI50 / CC50: Homo sapiens, HCT-15, 48 h; for CC50: read-out: LC50
[15] = tested on: MOLT-4; settings: for TGI: MOLT-4 (Leukemia), 48 h, SRB
[16] = tested on: UO-31; experiment: NCI DTP 60 cell line screen, SRB; settings: for GI50 / CC50: Homo sapiens, UO-31, 48 h; for CC50: read-out: LC50; for TGI: UO-31 (Renal Cancer), 48 h, SRB
[17] = tested on: DU-145; settings: DU-145 (Prostate Cancer), 48 h, SRB
[18] = tested on: OVCAR-5; experiment: NCI DTP 60 cell line screen, SRB; settings: for GI50 / CC50: Homo sapiens, OVCAR-5, 48 h; for CC50: read-out: LC50; for TGI: OVCAR-5 (Ovarian Cancer), 48 h, SRB
[19] = tested on: HOP-92; experiment: NCI DTP 60 cell line screen, SRB; settings: for TGI: HOP-92 (Non-Small Cell Lung Cancer), 48 h, SRB; for GI50 / CC50: Homo sapiens, HOP-92, 48 h; for CC50: read-out: LC50
[20] = tested on: MDA-MB-231/ATCC; experiment: NCI DTP 60 cell line screen, SRB; settings: for GI50 / CC50: Homo sapiens, MDA-MB-231, 48 h; for CC50: read-out: LC50; for TGI: MDA-MB-231/ATCC (Breast Cancer), 48 h, SRB
[21] = tested on: HCT-116; experiment: cells; settings: Homo sapiens, HCT-116, 48 h; for CC50: read-out: LC50
[22] = tested on: CCRF-CEM; experiment: NCI DTP 60 cell line screen, SRB; settings: 48 h; for TGI: CCRF-CEM (Leukemia), SRB; for GI50 / CC50: Homo sapiens, CCRF-CEM; for CC50: read-out: LC50

## O=C1NC(=S)S/C1=C\C(Cl)=C\c1ccc([N+](=O)[O-])cc1 [Compound 2b, 5-[(Z,2Z)-2-Chloro-3-(4-nitrophenyl)-2-propenylidene]-2-thioxo-4-thiazolidinone]
[1]
  GI50: 4.79 µM
  CC50: 43.5 µM
  60 lines MG_MID, TGI: 20.3 µM
[2]
  TGI: 13.4 µM
[3]
  GI50: 1650 nM
  CC50: 26.6 µM
  TGI: 8.08 µM
[4]
  GI50: 13 µM
  CC50: > 50 µM
  TGI: > 50 µM
[5]
  GI50: 5.75 µM
  CC50: 27.2 µM
  TGI: 12.5 µM
[6]
  TGI: 12.2 µM
  GI50: 4.57 µM
  CC50: 30.9 µM
[7]
  GI50: 3820 nM
  CC50: 24 µM
  TGI: 10.6 µM
[8]
  GI50: 3.95 µM
  CC50: > 50 µM
[9]
  GI50: 8.07 µM
  CC50: > 50 µM
[10]
  TGI: 14.6 µM
[11]
  TGI: > 50 µM
[12]
  GI50: 8.46 µM
  CC50: > 50 µM
  TGI: 37.9 µM
[13]
  GI50: 10.6 µM
  CC50: > 50 µM
  TGI: 23.2 µM
[14]
  TGI: 8.81 µM
  GI50: 1790 nM
  CC50: 25.4 µM
[15]
  TGI: 14.2 µM
[16]
  GI50: 4120 nM
  CC50: > 50 µM
  TGI: 21.8 µM
[17]
  TGI: 14.2 µM
[18]
  GI50: 11.1 µM
  CC50: 32.4 µM
  TGI: 19.5 µM
[19]
  TGI: > 50 µM
  GI50: 8.48 µM
  CC50: > 50 µM
[20]
  GI50: 8.16 µM
  CC50: > 50 µM
  TGI: 28.1 µM
[21]
  GI50: 2930 nM
  CC50: 33.7 µM
[22]
  TGI: 21.5 µM
  GI50: 1970 nM
  CC50: > 50 µM

## O=C(O)C(Cc1ccccc1)N1C(=O)/C(=C/C(Cl)=C/c2ccc([N+](=O)[O-])cc2)SC1=S (centres unmarked) [Compound 2j, 2-{5-[(Z,2Z)-2-Chloro-3-(4-nitrophenyl)-2-propenylidene]-4-oxo-2-thioxothiazolidin-3-yl}-3-phenylpropanoic acid]
[1]
  GI50: 4.09 µM
  CC50: 73.9 µM
  60 lines MG_MID, TGI: 40.6 µM
[2]
  TGI: 4.86 µM
[3]
  GI50: 1760 nM
  CC50: 6.98 µM
  TGI: 3.51 µM
[4]
  GI50: 4.13 µM
  CC50: > 100 µM
  TGI: > 100 µM
[5]
  GI50: 2 µM
  CC50: 30.2 µM
  TGI: 4.85 µM
[6]
  TGI: 3.24 µM
  GI50: 1.65 µM
  CC50: 6.37 µM
[7]
  GI50: 1680 nM
  CC50: 5.6 µM
  TGI: 3.06 µM
[8]
  GI50: 2.19 µM
  CC50: > 100 µM
[9]
  GI50: 1.87 µM
  CC50: > 100 µM
[10]
  TGI: 4.35 µM
[11]
  TGI: 7.98 µM
[12]
  GI50: 2.59 µM
  CC50: > 100 µM
  TGI: 7.85 µM
[13]
  GI50: 2.43 µM
  CC50: > 100 µM
  TGI: > 100 µM
[14]
  TGI: 4.58 µM
  GI50: 1920 nM
  CC50: > 100 µM
[15]; GI50 (normal blood lymphocyte)/GI50 (MOLT-4)
  TI (Therapeutic Index): 15.59
[15]
  TGI: > 100 µM
[16]
  GI50: 1590 nM
  CC50: 6.05 µM
  TGI: 3.10 µM
[17]
  TGI: 4.56 µM
[18]
  GI50: 2.82 µM
  CC50: > 100 µM
  TGI: 7.91 µM
[19]
  TGI: 5.71 µM
  GI50: 2.36 µM
  CC50: > 100 µM
[20]
  GI50: 3.35 µM
  CC50: > 100 µM
  TGI: > 100 µM
[21]
  GI50: 2010 nM
  CC50: 56.7 µM
[22]
  TGI: > 100 µM
  GI50: 2920 nM
  CC50: > 100 µM
